In patent US12269804B2, “Quinoxalinone compounds, compositions, methods, and kits for increasing genome editing efficiency” (VERTEX PHARMACEUTICALS INCORPORATED, priority 2018, dated 2025):
Read-outs that look alike come from different tables or passages of the source.

What was measured:
Format in all cases: cell-based, human
[1] = tested on: Bronchial Epithelial Cells (BECs), NAV1.7; test: Gene editing rates (TIDE assay) in BECs electroporated with spCAS9 mRNA, NAV1.7 sgRNA and NAV1.7 Non-PAM ssODN
Method: (§1) Bronchial Epithelial Cells (BECs) were derived from human donors diagnosed with Cystic Fibrosis with a CFTR dF508/dF508 genotype.
(§2) For BECs, the following conditions were used for electroporation: 1.8×E5 Cells, 250 ng of CAS9 mRNA, 500 ng of sgRNA and 0.66 μM of ssODN in 20 μl of P4 Electroporation buffer by using program CM-138. The electroporated cells were transferred to a 96 well plate containing 100 μl of BEC culture media supplemented with DNA-PK inhibitors or left untreated. Cells were incubated at 37° C. in a 5% CO2 incubator.
(§3) Genomic DNA was isolated by incubating cells with 50 μl DNA Quickextract solution (Epicentre) per well of 96 well plate for 30 min at 37° C. Cellular extract was mixed and transferred into a PCR plate and then incubated for 6 min at 65° C. and 2 min at 98° C. PCR reactions were carried out with 1 μl of Genomic DNA containing solution by using AccuPrime™ Pfx DNA Polymerase (Thermofisher, 12344024). PCR conditions were 4 min at 94° C. (1×), followed by 15 s at 94° C., 15 s at 60° C. and 1 min at […] (40×). The PCR products were purified and then Sanger sequenced by GENEWIZ. The following primer pairs spanning the target site were used for PCR (FW, forward; RV, reverse). Primers used by Sanger Sequencing are indicated by an asterisk (*): […]
(§4) Each sequence chromatogram was analyzed using TIDE (Tracking of Indels by Decomposition) software (http://tide.nki.nl) (See also Brinkman et al., Nucleic Acids Research, Volume 42, Issue 22, 16 Dec. 2014, Pages e168). Mock-electroporated samples were used as the reference sequence, and parameters were set to an indel size of 30 nt, and the decomposition window was set to cover the largest possible window with high-quality traces. Total indel (insertion and deletions) rates were obtained directly from TIDE plots. HDR rates were the percentage of events with an insertion of 10 Nucleotides. NHEJ Rates were calculated as Total Indel rate—HDR rate. GraphPad Prism 7 software was used to make Graphs and to calculate the all Statistical information.
(§5) FIG. 1 illustrates the design of the gene editing assays used in the examples below. To investigate the effect of DNA-PK inhibitors on HDR gene editing rates, BECs were electroporated with spCAS9 mRNA, NAV1.7 sgRNA and NAV1.7 Non-PAM ssODN and then incubated with different concentrations Compound 1 or left untreated (Control). Gene editing rates were determined by using TIDE assay 72 hs after electroporation. Gene editing rates were expressed in percentages and classified as HDR and NHEJ. Cell survival rates are shown in percentages where control cells were set as 100%.

[2] = tested on: Bronchial Epithelial Cells (BECs), AAVS1; test: Gene editing rates (TIDE assay) in BECs electroporated with spCAS9 mRNA, AAVS1 sgRNA and AAVS1 PAM ssODN
Method: as §1, §2
as §3, with “reverse).” for “reverse). Primers used by Sanger Sequencing are indicated by an asterisk (*):”
(§6) Each sequence chromatogram was analyzed using TIDE (Tracking of Indels by Decomposition) software (http://tide.nki.nl) (See also Brinkman et al., Nucleic Acids Research, Volume 42, Issue 22, 16 Dec. 2014, Pages e168). […] NHEJ Rates were calculated as Total Indel rate—HDR rate. […]
To investigate the gene editing kinetics at EC max, BECs were electroporated with spCAS9 mRNA, AAVS1 sgRNA and AAVS1 PAM ssODN and then incubated at different times with 10 μM Compound 1 or left untreated (Control). Gene editing rates were determined by using TIDE assay and expressed in percentages of HDR and NHEJ. […]
BECs were electroporated with spCAS9 mRNA, AAVS1 sgRNA and AAVS1 PAM ssODN and then incubated at different times with 0.7 μM Compound 1 or left untreated (Control). Gene editing rates were determined by using TIDE assay and expressed in percentages of HDR and NHEJ. […]

[3] = tested on: Induced Pluripotent Stem Cells (iPSCs), AAVS1; test: Gene editing rates (TIDE assay) in iPSCs electroporated with spCAS9 mRNA, AAVS1 sgRNA and AAVS1 PAM ssODN
Method: Induced Pluripotent Stem Cells (iPSCs) were derived from Human dermal fibroblasts after viral transduction with Yamanaka's reprogramming factors, Oct4, Sox2, KLF4 and c-Myc. Derived iPSCs were able to differentiate into 3 germ layers and contained a normal karyotype with 23 pairs of Chromosomes.
For iPSCs the following conditions were used: 2.0×E5 Cells, 250 ng of CAS9 mRNA, 500 ng of sgRNA and 0.66 μM of ssODN in 20 μl of P3 Electroporation buffer by using program CA-137. The electroporated cells were transferred to a 96 well plate containing 100 μl of mTEsR1 media (Stem Cell Technologies) supplemented with 10 μM ROCK Inhibitor Y-27632 (Stem Cell Technologies) with or without DNA-PK inhibitors and then incubated at 37° C. in a 5% CO2 incubator.
as §3, §4
as §5, with “To” for “FIG. 1 illustrates the design of the gene editing assays used in the examples below. To”, “iPSCs” for “BECs”, “AAVS1” for “NAV1.7”, “AAVS1 PAM” for “NAV1.7 Non-PAM”, “concentrations of” for “concentrations”

mPB CD34+ cells, NAV1.7 = test: Gene editing rates (TIDE assay) in mPB CD34+ cells electroporated with RNP (spCAS9 protein+NAV1.7 sgRNA) and NAV1.7 Non-PAM ssODN; conditions: for EC50: Homo sapiens
Method: (§7) Primary human mobilized peripheral blood (mPB) CD34^+ hematopoietic stem and progenitor cells (HSPCs) were purchased from Hemacare or AllCells. Cells were thawed, washed and resuspended in complete medium comprised of serum free medium CellGro SCGM (CellGenix) and supplemented with cytokine mix (300 ng/mL SCF, 300 ng/mL Flt3L, 100 ng/mL TPO, 60 ng/ml IL-3) at a density of 1-3×10^5 cells per mL and incubated at 37° C./5% CO2 incubator for 48 hours prior to electroporation.
(§8) CD34+ cells were electroporated two days post thaw. The following conditions were used for electroporation: 2.0×E6 cells, 15 μg Cas9 protein (Feldan), 15 μg sgRNA, 1 μM of ssODN in 100 μl of P3 electroporation buffer using program CA-137. Electroporated cells were transferred by equally dividing them into eight wells of a 24-well plate, each well containing various concentrations of DNA-PK inhibitors. Cells were incubated at 37° C. in a 5% CO2 incubator for two days and evaluated for cell viability and gene editing.
as §3, §4
To investigate the effect of DNA-PK inhibitors on HDR gene editing rates, mPB CD34+ cells were electroporated with RNP (spCAS9 protein+NAV1.7 sgRNA) and NAV1.7 Non-PAM ssODN. Cells were then incubated with various concentrations of Compound 1. Gene editing rates were determined by using TIDE assay 48 h after electroporation. Gene editing rates were expressed in percentages and classified as HDR and NHEJ as shown in FIG. 3A (Donor B) and FIG. 3B (Donor C. Cell survival rates are shown in percentages where control cells were set as 100%.

CD34+ cells, AAVS1 = test: HDR gene editing in CD34+ cells at AAVS1 (Summary Table); conditions: for EC50: Homo sapiens
Method: as §7, §8, §3, §4

[4] = tested on: Bronchial Epithelial Cells (BECs), AAVS1; test: HDR rates in BECs, gene editing components delivered by lipid-mediated transfection (AAVS1); conditions: AAVS1, lipid-based transfection, 72 hs after transfection
Method: as §1
One day prior to transfection, BECs were seeded in a 96-well plate at a cell density of 1×E4 cells per well in BECs culture media. First, 0.15 μl of MessengerMax (ThermoFisher, LMRNA 003) was diluted into 5 μl of Opti-MEM and incubated for 10 min at room temperature. Meanwhile, 80 ng of Cas9 mRNA (Trilink, L-7206), 20 ng of sgRNA (Synthego) and 1 picomol of ssODN were added to 5 μl of Opti-MEM and then mixed with MessengerMAx solution. The mixture was incubated for 5 min prior to addition to the cells. The entire solution was added to the cells in a well of 96-well plate with 100 μl of culture media with or without DNA-PK inhibitors. Cells were incubated at 37° C. for in a 5% CO2 incubator. […]
as §6
To investigate the effects of lipid-mediated transfection, BEC were transfected with spCAS9 mRNA, AAVS1 sgRNA and AAVS1 PAM ssODN and then incubated with different concentration of Compound 1 or left untreated (Control). Gene editing rates were determined by using TIDE assay 72 hs after transfection.

## Cn1c(=O)cnc2cc(N3CCOCC3)cc(O[C@H]3CC[C@@H](Nc4ncccn4)CC3)c21 [Compound 1, 1-methyl-6-morpholino-8-(((1,4-cis)-4-(pyrimidin-2-ylamino)cyclohexyl)oxy)quinoxalin-2(1H)-one]
[1]; Homo sapiens, Epithelial cell, NAV1.7, TIDE assay 72 hs after electroporation, read-out: HDR EC50
  EC50: 445 nM
[1]; Homo sapiens, Epithelial cell, NAV1.7, TIDE assay 72 hs after electroporation, read-out: NHEJ IC50
  IC50: 445 nM
[1]; Homo sapiens, Epithelial cell, NaV1.7, read-out: HDR EC50
  EC50: 720 nM
[1]; NAV1.7, TIDE assay 72 hs after electroporation
  HDR TOP %: 69.37%
[1]; NaV1.7
  HDR Max %: 69%
[2]
  HDR Max %: 66%
  Maximum Enhance Concentration (ECmax): 10 µM
[2]; Homo sapiens, Epithelial cell, read-out: Enhance Concentration 50 (EC50)
  EC50: 700 nM
[3]; AAVS1
  HDR Max %: 24%
[3]; AAVS1, TIDE assay 72 hs after electroporation
  HDR TOP %: 24.41%
[3]; Homo sapiens, iPSC, AAVS1, TIDE assay 72 hs after electroporation, read-out: HDR EC50
  EC50: 325 nM
[3]; Homo sapiens, iPSC, AAVS1, TIDE assay 72 hs after electroporation, read-out: NHEJ IC50
  IC50: 474 nM
[3]; Homo sapiens, iPSC, AAVS1, read-out: HDR EC50
  EC50: 330 nM
mPB CD34+ cells, NAV1.7; CD34+, Donor A, NaV1.7
  HDR Max %: 82%
mPB CD34+ cells, NAV1.7; CD34+, Donor B, NaV1.7
  HDR Max %: 86%
mPB CD34+ cells, NAV1.7; CD34+, Donor C, NaV1.7
  HDR Max %: 67%
mPB CD34+ cells, NAV1.7; 48 h, CD34+ cells, Donor B, NAV1.7, 48 h after electroporation, read-out: EC50 of HDR
  EC50: 290 nM
mPB CD34+ cells, NAV1.7; 48 h, CD34+ cells, Donor B, NAV1.7, 48 h after electroporation, read-out: EC50 of Indel formation
  EC50: 350 nM
mPB CD34+ cells, NAV1.7; CD34+, Donor A, NaV1.7, read-out: HDR EC50
  EC50: 390 nM
mPB CD34+ cells, NAV1.7; CD34+, Donor B, NaV1.7, read-out: HDR EC50
  EC50: 290 nM
mPB CD34+ cells, NAV1.7; CD34+, Donor C, NaV1.7, read-out: HDR EC50
  EC50: 110 nM
CD34+ cells, AAVS1; Donor A
  HDR Max %: 76%
  EC50: 120 nM
CD34+ cells, AAVS1; Donor C
  HDR Max %: 88%
  EC50: 180 nM
[4]
  HDR efficiency rates: increasing HDR efficiency rates with increasing concentrations
